{"source": "patent US20100150868A1", "about": "“Methods of Individually Optimizing Treatment for an Inflammation Associated Disease” (Tel HaShomer Medical Research Infrastructure and Services …, priority 2005, published 2010)", "origin": "cited, not measured here", "system": "TNF-α secretion of MOG stimulated PBMC", "settings": "in vitro, 10 μg/ml", "data": [{"substance": "Glatiramer acetate [Copaxone]", "values": [{"measurement": "inhibitory effect on TNF-α producing cells compared with in-vivo experiments", "value": "same inhibitory effect"}]}]}
